Laboratory results reported in patent US20230000924A1, “COMPOSITIONS AND METHODS FOR GENERATION OF SINOATRIAL NODE-LIKE CELLS AND THEIR USE IN DRUG DISCOVERY” (Cornell University, priority 2019, published 2023).

Tests used:
[1] = test system: SHOX2:GFP+ hPSC-SAN cells; assay: DOXO toxicity, cleaved caspase3+ cells, in hPSC-SAN cells; format: cell-based, human; settings: 0.16 μM DOXO, 3 days, day 35 pacemaker-like cells
Protocol: (§1) FIG. 4. Pharmacogenetics and drug discovery for doxorubicin-mediated acute cell toxicity using hPSC-SAN cells. a, Relative cell toxicity of hESC-SAN and hESC-V cells upon DOXO treatment based on immunostaining of antibody against cleaved-caspase3. The fold change was calculated by dividing the percentage of cleaved caspase-3^+ cells in GFP^+ or mCherry^+ cells in the DOXO-treated condition by the percentage of cleaved caspase-3^+ cells in GFP^+ or mCherry^+ cells in the DMSO-treated condition (n=10); b, Sensitivity of day 30 hiPSC-SAN cells derived from 48 hiPSC lines upon DOXO treatment. 48 hiPSC lines were differentiated toward SAN-like cells and split into two equal samples, which were treated with 0.16 μM doxorubicin or DMSO for 3 days. The fold change was calculated by dividing the percentage of cleaved caspase-3^+ cells in ISL1^+ cells in the DOXO-treated condition by the percentage of cleaved caspase-3^+ cells in ISL1^+ cells in the DMSO-treated condition. […] Data are mean±s.e.m. Data were normalized to non-DOXO treated cells.

[2] = test system: SHOX2:GFP-; MHC6:mCherry+ cardiomyocytes; settings: 0.16 μM DOXO, 3 days, day 35 cardiomyocytes
Protocol: as §1

[3] = test system: hPSC-SAN cells differentiated from 48 distinct iPSC lines; assay: DOXO sensitivity of hPSC-SAN cells differentiated from 48 iPSC lines (cleaved caspase-3 / ISL1 staining); format: cell-based, human; settings: 0.16 μM DOXO, 3 days
Protocol: FIG. 4. […] Data are mean±s.e.m. Data were normalized to non-DOXO treated cells.
To identify genetic variation that associates with the sensitivity of pacemaker cells to DOXO-induced toxicity, we performed an unbiased screen using a library of hPSC-SAN cells differentiated from 48 distinct iPSC lines. Cells differentiated for 35 days were treated with 0.16 μM DOXO for 3 days. Due to the lack of a robust antibody to SHOX2, an antibody recognizing ISL1 that is co-expressed with SHOX2:GFP (FIG. 2a), was used to identify hPSC-SAN cells that co-stain for cleaved caspase-3, as an assay for cytotoxicity. […] We identified 14 “high-sensitive” iPSC lines that generate hPSC-SAN cells displaying DOXO-induced apoptosis rates greater than 4-fold compared to DMSO-treated cells (FIG. 4b). To test if this platform can be applied toward in vitro pharmacogenomics, the iPSC clones were sequenced at several genomic regions harboring known SNPs associated with increased DOXO-mediated cardiotoxicity, including rs1056892, rs2229774 and rs885004 (in or near the genes CBR3, RARG and SLC28A3, respectively). 10 out of the 14 high-sensitive iPSC lines harbored one of these 3 SNPs (FIG. 4c). All 4 of the lines carrying the risk allele of rs1056892 generated hPSC-SAN cells with more than 4-fold increased toxicity. This is consistent with findings that CBR3 is expressed in heart tissue and functions for drug metabolism.

HCN4+ SAN cells = settings: mouse, in vivo
Protocol: FIG. 12. […] Immunofluorescence of intact atria isolated from Doxorubicin (two IP injections of 10 mg/kg at 3 day intervals) treated mice euthanized 9 days after initial treatment. Cell death (caspase 3, green) was analyzed in either myocardial (cTroponin, blue) or SAN tissue (HCN4, red).
FIG. 13. […] Contractions of intact atria isolated from vehicle (left panels) or Doxorubicin (right panels) treated mice (30 sec recordings;) x axis=[…]. […] Quantification of contraction rhythmicity of hearts was calculated by the coefficient of variance (COV)=std dev of peak to peak contraction time/average peak to peak contraction time.
C57BL/6 mice were treated with 20 mg/kg Doxorubicin by intraperitoneal injection.

murine SAN = assay: Ex vivo murine atrial explants (SAN cell death, contraction rhythmicity)
Protocol: FIG. 15. […] Quantification of contraction rhythmicity of explants was calculated by the COV as described above.
FIG. 16. […] Quantification of contraction rhythmicity of explants was calculated by the COV as described above.
Thus, we used an ex vivo model to document the direct effect of Doxorubicin and Physcion on the murine SAN. Whole, intact atrial explants were incubated with 1 μM doxorubicin or 1 uM doxorubicin+20 μM Physcion for 3 hrs.

A549 xenograft tumors = assay: A549 xenograft mouse model; format: in vivo; settings: IP once a week for two weeks, 4 mg/kg
Protocol: FIG. 18. […] We tested the effects of Doxorubicin and Physcion using an A549 xenograft mouse model. Mice with A549 xenograft tumors were treated with vehicle, Doxorubicin, Physcion, or Doxorubicin plus Physcion. Doxorubicin and Physcion treatment was administered by IP injection once a week for two weeks, at a concentration of 4 mg/kg wt for both compounds.

[4] = cited from earlier work
[5] = test system: GATA5-induced progenitors; assay: qRT-PCR-based chemical screen in GATA5-induced murine ESC progenitors; format: cell-based
Description: FIG. 5. Optimization of the protocol for the derivation of SAN-like cells from hPSCs a, Schematic representation of the murine differentiation protocol and qRT-PCR analysis for the expression levels of TBX3, TBX18 and SHOX2 following induction of GATA4, GATA5 or GATA6 at day 4. Fold change was normalized to level using the iGATA6 line; b, Heatmap illustration of the qPCR results of transcription-screen for TBX3, TBX18 and SHOX2; hit compounds (EGF inhibitors) from plates 1 and 3 are circled. c, The activity of tyrphostin AG490 and 2NP on the expression of TBX3, TBX18 and SHOX2; d, The activity of cucurbitacin (STAT3 inhibitor) on expression of MYH6; e, qRT-PCR analysis for TBX3, TBX18 and SHOX2 in S1+RA (left) and S1+cucurbitacin (right); f, The percentage of SHOX2:GFP^+ cells treated with different EGF inhibitors (left) and dose-response curve for effects of Tyrphostin AG490 on the percentage of SHOX2:GFP^+ cells. Fold changes were normalized to DMSO-treated group unless stated otherwise.
We developed a protocol that maximizes the generation of pluripotent stem cell-derived SAN pacemaker lineages (PSC-SAN). […] We therefore applied GATA5-induced progenitors to an unbiased qRT-PCR-based chemical screen using annotated pathway modulating compounds to identify modulators that further enhance the expression of TTS and specification toward pacemaker lineage. […]

Molecule | cytotoxicity (percentage of cleaved caspase3+ cells) [1] | cell death (percentage of cleaved caspase3+ cells) [2] | DOXO-induced apoptosis rate compared to DMSO-treated cells ([3]; 14 high-sensitive iPSC lines) | increased toxicity ([3]; all 4 lines carrying the risk allele of rs1056892) | percentage of cleaved caspase3+ ISL1 cells following DOXO ([3]; hPSC-SAN cells from all 48 iPSC lines) | variance in the time between contractions (coefficient of variance, COV) (HCN4+ SAN cells) | SAN cell death in atrial explants (murine SAN; 1 μM doxorubicin, 3 hrs) | contractility of atrial explants (murine SAN; 1 μM doxorubicin, 3 hrs) | contraction rhythmicity of explants (COV) (murine SAN; 1.5 μM Doxorubicin) | tumor burden / growth (tumor wt. and volume), single agent (A549 xenograft tumors) | sub-clinical systolic dysfunction ([4]; of treated patients) [%] | DOXO-induced cardiomyopathy ([4]; treated patients) | expression levels of nodal and atrial structural marker MYH6 [5]
COc1cccc2c1C(=O)c1c(O)c3c(c(O)c1C2=O)C[C@@](O)(C(=O)CO)C[C@@H]3O[C@H]1C[C@H](N)[C@H](O)[C@H](C)O1 [Doxorubicin] | significant cytotoxicity | no significant increase in cell death | greater than 4 fold | greater than 4 fold | at least some increase | significantly higher variance in the time between contractions | localized SAN cell death | irregular contractility | irregular contractions marked by significantly higher variance in the time between contractions | reduction in tumor wt. and volume | ~40 | 10-20% | –
cucurbitacin | – | – | – | – | – | – | – | – | – | – | – | – | enhances the expression levels
